# Columns and labels:
# Assay type in all cases: in vivo
# [1] = tested on: windgrass (Apera spica-venti); experiment: Test B postemergence plant response; conditions: for Windgrass plant response rating: 8 g ai/ha, postemergence, 0-100 scale; for Plant response rating, Windgrass: Postemergence
# Outline: (§1)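 Visual injury score from 0 (none) to 100 (complete control) versus controls, taken 13 to 15 days after treatment in the greenhouse; chemicals applied postemergence, as formulated, to plants of 1- to 4-leaf stage (2 to 18 cm tall); dash denotes no test result.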
# [2] = tested on: canarygrass (Phalaris minor); experiment: Test B postemergence plant response; conditions: for Canarygrass plant response rating: 8 g ai/ha, postemergence, 0-100 scale; for Plant response rating, Canarygrass: Postemergence
# Outline: as §1
# [3] = tested on: chickweed (Stellaria media); experiment: Test B postemergence plant response; conditions: for Chickweed plant response rating: 8 g ai/ha, postemergence, 0-100 scale; for Plant response rating, Chickweed: Postemergence
# Outline: as §1
# [4] = tested on: winter barley (Hordeum vulgare); experiment: Test B postemergence plant response; conditions: for Barley plant response rating: 8 g ai/ha, postemergence, 0-100 scale; for Plant response rating, Barley: Postemergence
# Outline: as §1
# [5] = tested on: umbrella sedge (Cyperus difformis); experiment: Test B flooded paddy test plant response
# Outline: (§2)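 2-leaf plants; pots flooded 3 cm above soil; compound added to paddy water; depth maintained. Greenhouse 13–15 d. Visual rating vs controls, 0 (no effect) to 100 (complete control); dash = no result.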
# [6] = tested on: barnyardgrass (Echinochloa crus-galli); experiment: Test B flooded paddy test plant response
# Outline: as §2
# rice (Oryza sativa) = experiment: Test B flooded paddy test plant response
# Outline: as §2
# [7] = tested on: barnyardgrass (Echinochloa crus-galli); experiment: Test A pre-/postemergence plant response
# Outline: (§3)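 Ratings run 0–100 (100 = complete control), assigned visually against untreated controls roughly 10 days after treatment in a greenhouse. Compounds, formulated in non-phytotoxic solvent containing surfactant, were applied as a soil-directed preemergence spray and concurrently postemergence to one- to two-leaf plants 2–10 cm tall.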
# [8] = tested on: giant foxtail (Setaria faberi); experiment: Test A pre-/postemergence plant response
# Outline: as §3
# [9] = tested on: large crabgrass (Digitaria sanguinalis); experiment: Test A pre-/postemergence plant response
# Outline: as §3
# [10] = tested on: velvetleaf (Abutilon theophrasti); experiment: Test A pre-/postemergence plant response
# Outline: as §3
# [11] = tested on: morningglory (Ipomoea coccinea); experiment: Test A pre-/postemergence plant response
# Outline: as §3
# [12] = tested on: wheat (Triticum aestivum); experiment: Test A pre-/postemergence plant response
# Outline: as §3
# corn (Zea mays) = experiment: Test A pre-/postemergence plant response
# Outline: as §3
# [13] = 31 g ai/ha, scale 0 to 100, 0 no effect, 100 complete control
# [14] = 16 g ai/ha, scale 0 to 100, 0 no effect, 100 complete control
# [15] = Flood (flooded paddy test), 62 g ai/ha, scale 0 to 100, 0 no effect, 100 complete control
# [16] = Flood (flooded paddy test), 125 g ai/ha, scale 0 to 100, 0 no effect, 100 complete control
# [17] = Flood (flooded paddy test), 250 g ai/ha, scale 0 to 100, 0 no effect, 100 complete control
# [18] = Flood, 31 g ai/ha, scale 0 to 100
# [19] = Postemergence, 125 g ai/ha, 0 to 100 scale, 0 no effect, 100 complete control
# [20] = Postemergence, 500 g ai/ha, 0 to 100 scale, 0 no effect, 100 complete control
# [21] = Preemergence, 125 g ai/ha, 0 to 100 scale (0 no effect, 100 complete control)
# [22] = Preemergence, 500 g ai/ha, 0 to 100 scale (0 no effect, 100 complete control)
# [23] = 62 g ai/ha, scale 0 to 100, 0 no effect, 100 complete control
# [24] = Postemergence, 31 g ai/ha, 0 to 100 scale, 0 no effect, 100 complete control
# [25] = Preemergence, 31 g ai/ha, 0 to 100 scale, 0 is no effect, 100 is complete control
smiles,measurement,setting,value
CCc1cc(-c2ccc(Cl)cc2)nn1-c1c(O)cnn(C)c1=O [Compound 21],Windgrass plant response rating,[1],50
same,"Plant response rating, Windgrass","[1]; 16 g ai/ha, scale 0 to 100",98
same,"Plant response rating, Windgrass",[1]; [13],100
same,"Plant response rating, Windgrass","[1]; 62 g ai/ha, scale 0 to 100",100
same,Canarygrass plant response rating,[2],10
same,"Plant response rating, Canarygrass","[2]; 16 g ai/ha, scale 0 to 100",90
same,"Plant response rating, Canarygrass","[2]; 62 g ai/ha, scale 0 to 100",100
same,Chickweed plant response rating,[3],0
same,"Plant response rating, Chickweed","[3]; 16 g ai/ha, scale 0 to 100",0
same,"Plant response rating, Chickweed",[3]; [13],0
same,"Plant response rating, Chickweed","[3]; 62 g ai/ha, scale 0 to 100",0
same,Barley plant response rating,[4],0
same,"Plant response rating, Barley",[4]; [14],60
same,"Plant response rating, Barley","[4]; 62 g ai/ha, scale 0 to 100",100
same,"Plant response rating, Sedge, Umbrella",[5]; [15],0
same,"Plant response rating, Sedge, Umbrella",[5]; [16],0
same,"Plant response rating, Sedge, Umbrella",[5]; [17],30
same,"Plant response rating, Sedge, Umbrella",[5]; [18],0
same,"Plant response rating, Barnyardgrass",[6]; [15],75
same,"Plant response rating, Barnyardgrass",[6]; [16],80
same,"Plant response rating, Barnyardgrass",[6]; [17],100
same,"Plant response rating, Barnyardgrass",[6]; [18],55
same,"Plant response rating, Rice",rice (Oryza sativa); [15],0
same,"Plant response rating, Rice",rice (Oryza sativa); [16],20
same,"Plant response rating, Rice",rice (Oryza sativa); [17],70
same,"Plant response rating, Rice",rice (Oryza sativa); [18],0
same,"Plant response rating, Barnyardgrass",[7]; [19],100
same,"Plant response rating, Barnyardgrass",[7]; [20],100
same,"Plant response rating, Barnyardgrass",[7]; [21],100
same,"Plant response rating, Barnyardgrass",[7]; [22],100
same,"Plant response rating, Foxtail, Giant",[8]; [19],100
same,"Plant response rating, Foxtail, Giant",[8]; [20],100
same,"Plant response rating, Foxtail, Giant",[8]; [21],100
same,"Plant response rating, Foxtail, Giant",[8]; [22],100
same,"Plant response rating, Crabgrass, Large",[9]; [19],90
same,"Plant response rating, Crabgrass, Large",[9]; [20],100
same,"Plant response rating, Crabgrass, Large",[9]; [21],100
same,"Plant response rating, Crabgrass, Large",[9]; [22],100
same,"Plant response rating, Velvetleaf",[10]; [19],0
same,"Plant response rating, Velvetleaf",[10]; [20],0
same,"Plant response rating, Velvetleaf",[10]; [21],0
same,"Plant response rating, Velvetleaf",[10]; [22],0
same,"Plant response rating, Morningglory",[11]; [19],0
same,"Plant response rating, Morningglory",[11]; [20],0
same,"Plant response rating, Morningglory",[11]; [21],0
same,"Plant response rating, Morningglory",[11]; [22],0
same,"Plant response rating, Wheat",[12]; [19],60
same,"Plant response rating, Wheat",[12]; [20],80
same,"Plant response rating, Wheat",[12]; [21],90
same,"Plant response rating, Wheat",[12]; [22],100
same,"Plant response rating, Corn",corn (Zea mays); [19],80
same,"Plant response rating, Corn",corn (Zea mays); [20],90
same,"Plant response rating, Corn",corn (Zea mays); [21],90
same,"Plant response rating, Corn",corn (Zea mays); [22],100
Cc1cc(-c2ccc(Cl)cc2)nn1-c1c(OC(=O)c2cccs2)cnn(C)c1=O [Compound 52],Windgrass plant response rating,[1],0
same,"Plant response rating, Windgrass","[1]; 16 g ai/ha, scale 0 to 100",0
same,"Plant response rating, Windgrass","[1]; 31 g ai/ha, scale 0 to 100",60
same,"Plant response rating, Windgrass",[1]; [23],80
same,Canarygrass plant response rating,[2],0
same,"Plant response rating, Canarygrass","[2]; 16 g ai/ha, scale 0 to 100",0
same,"Plant response rating, Canarygrass","[2]; 31 g ai/ha, scale 0 to 100",0
same,"Plant response rating, Canarygrass",[2]; [23],5
same,Chickweed plant response rating,[3],0
same,"Plant response rating, Chickweed","[3]; 16 g ai/ha, scale 0 to 100",0
same,"Plant response rating, Chickweed","[3]; 31 g ai/ha, scale 0 to 100",0
same,"Plant response rating, Chickweed",[3]; [23],0
same,Barley plant response rating,[4],0
same,"Plant response rating, Barley",[4]; [14],0
same,"Plant response rating, Barley",[4]; [13],0
same,"Plant response rating, Barley",[4]; [23],0
same,"Plant response rating, Sedge, Umbrella",[5]; [15],0
same,"Plant response rating, Sedge, Umbrella",[5]; [17],0
same,"Plant response rating, Barnyardgrass",[6]; [15],15
same,"Plant response rating, Barnyardgrass",[6]; [17],75
same,"Plant response rating, Rice",rice (Oryza sativa); [15],10
same,"Plant response rating, Rice",rice (Oryza sativa); [17],60
same,"Plant response rating, Barnyardgrass",[7]; [24],80
same,"Plant response rating, Barnyardgrass",[7]; [19],100
same,"Plant response rating, Barnyardgrass",[7]; [25],70
same,"Plant response rating, Barnyardgrass",[7]; [21],100
same,"Plant response rating, Foxtail, Giant",[8]; [24],80
same,"Plant response rating, Foxtail, Giant",[8]; [19],90
same,"Plant response rating, Foxtail, Giant",[8]; [25],100
same,"Plant response rating, Foxtail, Giant",[8]; [21],100
same,"Plant response rating, Crabgrass, Large",[9]; [24],60
same,"Plant response rating, Crabgrass, Large",[9]; [19],90
same,"Plant response rating, Crabgrass, Large",[9]; [25],30
same,"Plant response rating, Crabgrass, Large",[9]; [21],100
same,"Plant response rating, Velvetleaf",[10]; [24],0
same,"Plant response rating, Velvetleaf",[10]; [19],20
same,"Plant response rating, Velvetleaf",[10]; [21],0
same,"Plant response rating, Morningglory",[11]; [24],0
same,"Plant response rating, Morningglory",[11]; [19],0
same,"Plant response rating, Morningglory",[11]; [25],0
same,"Plant response rating, Morningglory",[11]; [21],20
same,"Plant response rating, Wheat",[12]; [24],30
same,"Plant response rating, Wheat",[12]; [19],60
same,"Plant response rating, Wheat",[12]; [25],10
same,"Plant response rating, Wheat",[12]; [21],80
same,"Plant response rating, Corn",corn (Zea mays); [24],30
same,"Plant response rating, Corn",corn (Zea mays); [19],100
same,"Plant response rating, Corn",corn (Zea mays); [25],0
same,"Plant response rating, Corn",corn (Zea mays); [21],70
Cc1nn(C)c(=O)c(-n2nc(-c3ccc(Cl)cc3)cc2Cl)c1O [Compound 59],Windgrass plant response rating,[1],0
same,"Plant response rating, Windgrass","[1]; 16 g ai/ha, scale 0 to 100",0
same,"Plant response rating, Windgrass","[1]; 31 g ai/ha, scale 0 to 100",10
same,"Plant response rating, Windgrass",[1]; [23],50
same,Canarygrass plant response rating,[2],0
same,"Plant response rating, Canarygrass","[2]; 16 g ai/ha, scale 0 to 100",40
same,"Plant response rating, Canarygrass","[2]; 31 g ai/ha, scale 0 to 100",55
same,"Plant response rating, Canarygrass",[2]; [23],70
same,Chickweed plant response rating,[3],0
same,"Plant response rating, Chickweed","[3]; 16 g ai/ha, scale 0 to 100",0
same,"Plant response rating, Chickweed","[3]; 31 g ai/ha, scale 0 to 100",0
same,"Plant response rating, Chickweed",[3]; [23],0
same,Barley plant response rating,[4],0
same,"Plant response rating, Barley",[4]; [14],0
same,"Plant response rating, Barley",[4]; [13],20
same,"Plant response rating, Barley",[4]; [23],50
same,"Plant response rating, Sedge, Umbrella",[5]; [15],0
same,"Plant response rating, Sedge, Umbrella",[5]; [17],30
same,"Plant response rating, Barnyardgrass",[6]; [15],0
same,"Plant response rating, Barnyardgrass",[6]; [17],50
same,"Plant response rating, Rice",rice (Oryza sativa); [15],10
same,"Plant response rating, Rice",rice (Oryza sativa); [17],25
same,"Plant response rating, Barnyardgrass",[7]; [24],90
same,"Plant response rating, Barnyardgrass",[7]; [19],100
same,"Plant response rating, Barnyardgrass",[7]; [25],90
same,"Plant response rating, Barnyardgrass",[7]; [21],100
same,"Plant response rating, Foxtail, Giant",[8]; [24],90
same,"Plant response rating, Foxtail, Giant",[8]; [19],90
same,"Plant response rating, Foxtail, Giant",[8]; [25],70
same,"Plant response rating, Foxtail, Giant",[8]; [21],90
same,"Plant response rating, Crabgrass, Large",[9]; [24],50
same,"Plant response rating, Crabgrass, Large",[9]; [19],90
same,"Plant response rating, Crabgrass, Large",[9]; [25],20
same,"Plant response rating, Crabgrass, Large",[9]; [21],50
same,"Plant response rating, Velvetleaf",[10]; [24],0
same,"Plant response rating, Velvetleaf",[10]; [19],0
same,"Plant response rating, Velvetleaf",[10]; [25],0
same,"Plant response rating, Velvetleaf",[10]; [21],0
same,"Plant response rating, Morningglory",[11]; [24],0
same,"Plant response rating, Morningglory",[11]; [19],0
same,"Plant response rating, Morningglory",[11]; [25],0
same,"Plant response rating, Morningglory",[11]; [21],0
same,"Plant response rating, Wheat",[12]; [24],0
same,"Plant response rating, Wheat",[12]; [19],60
same,"Plant response rating, Wheat",[12]; [25],0
same,"Plant response rating, Wheat",[12]; [21],50
same,"Plant response rating, Corn",corn (Zea mays); [24],30
same,"Plant response rating, Corn",corn (Zea mays); [19],70
same,"Plant response rating, Corn",corn (Zea mays); [25],0
same,"Plant response rating, Corn",corn (Zea mays); [21],60

# Source: patent US20100267561A1, “HERBICIDAL PYRIDAZINONE DERIVATIVES” (priority 2007, published 2010)
